Test results from ChEMBL document CHEMBL4251670, “Cyclopiamines C and D: Epoxide Spiroindolinone Alkaloids from Penicillium sp. CML 3020” (J Nat Prod, 2018).

What was measured:
[1] = Cytotoxicity against human NCH421K cells after 72 hrs by CellTiter-Glo luminescent assay; type: functional, cell-based
[2] = tested on: SW480; assay: Cytotoxicity against human SW480 cells after 72 hrs by CellTiter-Glo luminescent assay; type: functional, cell-based; settings: SW480, 72 h
[3] = Cytotoxicity against human MEC1 cells after 72 hrs by CellTiter-Glo luminescent assay; type: functional, cell-based; settings: MEC1, 72 h
[4] = tested on: MCF7; assay: Cytotoxicity against human MCF7 cells after 72 hrs by CellTiter-Glo luminescent assay; type: functional, cell-based; settings: MCF7, 72 h
[5] = tested on: EVSA-T; assay: Cytotoxicity against human EVSA-T cells after 72 hrs by CellTiter-Glo luminescent assay; type: functional, cell-based
[6] = tested on: MDA-MB-231; assay: Cytotoxicity against human MDA-MB-231 cells after 72 hrs by CellTiter-Glo luminescent assay; type: functional, cell-based; settings: MDA-MB-231, 72 h
[7] = tested on: Escherichia coli; assay: Antibacterial activity against Escherichia coli MB2884 measured after overnight incubation; type: functional
[8] = tested on: Klebsiella pneumoniae; assay: Antibacterial activity against Klebsiella pneumoniae ATCC 700603 measured after overnight incubation; type: functional
[9] = tested on: Acinetobacter baumannii; assay: Antibacterial activity against Acinetobacter baumannii MB5973 measured after overnight incubation; type: functional
[10] = tested on: Pseudomonas aeruginosa; assay: Antibacterial activity against Pseudomonas aeruginosa MB5919 measured after overnight incubation; type: functional
[11] = tested on: Staphylococcus aureus; assay: Antibacterial activity against methicillin-resistant Staphylococcus aureus MB5393 measured after overnight incubation; type: functional
[12] = tested on: Aspergillus fumigatus; assay: Antifungal activity against Aspergillus fumigatus ATCC 46645 measured after overnight incubation; type: functional
[13] = tested on: Candida albicans; assay: Antifungal activity against Candida albicans MY1055 measured after overnight incubation; type: functional

Structure (SMILES) | IC50 [1] | IC50 [2] | IC50 [3] | IC50 [4] | IC50 [5] | IC50 [6] | MIC [7] | MIC [8] | MIC [9] | MIC [10] | MIC [11] | MIC [12] | MIC [13]
COc1ccc2c3c1C(=O)[C@H](O)C(C)(C)N3C(=O)[C@@]21C[C@]2([N+](=O)[O-])CN3C[C@@H]4O[C@@H]4[C@@H]3C[C@H]2C1(C)C | > 180 µM | > 180 µM | > 180 µM | > 180 µM | > 180 µM | > 180 µM | > 64 µg/mL | > 64 µg/mL | > 64 µg/mL | > 64 µg/mL | > 64 µg/mL | > 64 µg/mL | > 64 µg/mL
CC1(C)[C@@H](O)C(=O)c2c(O)ccc3c2N1C(=O)[C@@]31C[C@]2([N+](=O)[O-])CN3C[C@@H]4O[C@@H]4[C@@H]3C[C@H]2C1(C)C | > 180 µM | > 180 µM | > 180 µM | > 180 µM | > 180 µM | > 180 µM | > 64 µg/mL | > 64 µg/mL | > 64 µg/mL | > 64 µg/mL | > 64 µg/mL | > 64 µg/mL | > 64 µg/mL
